{"source": "patent US20100004234A1", "about": "“SPECIFIC KINASE INHIBITORS” (Kosan Biosciences Incorporated, priority 2004, published 2010)", "key": {"[1]": {"tested_on": "COLO829 (Human melanoma, B-Raf V599E)", "test": "Cell proliferation assay (Cell Titer Glo)", "assay_type": "cell-based", "experimental": "(§1) In one illustrative method, cells are treated with various concentrations of the inhibitor in 96 well plates, incubated at 37° C./5% CO2 for three days, and analyzed using the Cell Titer Glo kit (Promega).\n(§2) COLO829 is a human melanoma cell line. HT29 is a human colon cancer cell line. Both cell lines have a V600E B-Raf mutation. SKOV3 is an ovarian cancer cell line having wild-type B-Raf. EKR2 (extra-cellular signal regulated kinase 2) is a kinase in the Ras/B-Raf MAP kinase cascade pathway."}, "[2]": {"tested_on": "HT29 (Human colon, B-Raf V599E)", "test": "Cell proliferation assay (Cell Titer Glo)", "assay_type": "cell-based", "experimental": "as §1, §2"}, "[3]": {"tested_on": "phosphorylated ERK in COLO829 cells (B-Raf V599E)", "test": "Phospho-ERK Western blot in COLO829 cells", "assay_type": "cell-based, human", "experimental": "The downstream effects of inhibition of a particular kinase (e.g. MEK) can be established by measuring the phosphorylation state of several proteins that require that kinase for phosphorylation (e.g. ERK1). Cultured cells are treated with hypothemycin or other lactone analogs described herein, and Western blots of cell extracts are probed with antibodies specific for the unmodified and phosphorylated forms of the downstream targets. As an example, the effects of hypothemycin on MEK1/2 can be determined by measuring the level of ERK1/2 phosphorylation.\nReferring to FIG. 8, B-Raf V599E mutant melanoma cell line COLO829 was incubated with 1 microM hypothemycin for 2, 5, 10, 15, 30, and 60 minutes. The cells were then lysed and the proteins extracted. Equal amounts of total protein from each sample were separated by SDS-PAGE followed by electroblotting to a PVDF membrane. The levels of phospho-ERK present in each extract were visualized by incubation of the membrane with anti-phosphoERK antibody (Cell Signaling Technologies) followed by incubation with an HRP linked secondary antibody. Phospho-ERK containing bands were detected by autoradiography using the ECL Western detection kit (Amersham)."}, "[4]": {"biological_target": "TrkB (Homo sapiens, UniProt Q16620)", "sequence (Q16620 32-822)": "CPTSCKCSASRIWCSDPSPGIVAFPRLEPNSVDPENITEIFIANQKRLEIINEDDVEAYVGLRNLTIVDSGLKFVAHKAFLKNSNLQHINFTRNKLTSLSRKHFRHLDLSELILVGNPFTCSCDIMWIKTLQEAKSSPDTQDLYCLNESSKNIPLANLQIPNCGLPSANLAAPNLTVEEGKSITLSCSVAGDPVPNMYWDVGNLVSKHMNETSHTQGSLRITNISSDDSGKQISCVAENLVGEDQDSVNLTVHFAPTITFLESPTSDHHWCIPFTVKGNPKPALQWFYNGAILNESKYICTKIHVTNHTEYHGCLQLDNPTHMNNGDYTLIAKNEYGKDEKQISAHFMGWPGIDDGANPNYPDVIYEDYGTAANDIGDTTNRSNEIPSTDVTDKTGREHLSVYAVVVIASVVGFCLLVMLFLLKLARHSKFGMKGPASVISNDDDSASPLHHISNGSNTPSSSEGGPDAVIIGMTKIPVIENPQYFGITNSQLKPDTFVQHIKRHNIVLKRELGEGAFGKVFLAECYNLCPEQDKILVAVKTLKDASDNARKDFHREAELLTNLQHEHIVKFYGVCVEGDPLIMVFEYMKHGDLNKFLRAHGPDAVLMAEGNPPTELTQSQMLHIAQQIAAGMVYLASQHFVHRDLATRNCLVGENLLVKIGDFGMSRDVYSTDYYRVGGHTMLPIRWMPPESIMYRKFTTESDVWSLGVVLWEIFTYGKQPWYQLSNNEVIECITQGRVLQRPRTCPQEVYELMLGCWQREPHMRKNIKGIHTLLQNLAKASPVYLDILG", "test": "Time-dependent kinase inhibition kinetics (progress curve)", "assay_type": "biochemical", "experimental": "(§3) Typically, one measures the increase in inhibition of protein kinase activity in the presence of inhibitor over time. In one method, aliquots of a “pre-incubation” reaction mixture containing enzyme and inhibitor are assayed for activity (initial velocities) over time; increased inhibition or decreased initial velocities will be observed over time as the Michael adduct forms (Walsh, C, Enzyme Reaction Mechanisms, W.H. Freeman & Co., 1979, pp 86-94). In a second method, the time dependent loss of activity is measured as “progress curves” that measure and analyze product formed (e.g. ADP) versus time (Morrison & Walsh, Adv. Enzymol Relat Areas Mol. Biol. 1988, 61, 201-301). In either case, the time dependent inactivation can be dampened by the presence of a competing substrate, in this case ATP.\n(§4) For covalent inhibitors, plots of log (activity) versus time provide apparent first-order rate constants (kobsd) of enzyme activity loss. If these assays are performed at varying concentrations of inhibitor, a series of first-order plots is obtained and kobsd obtained at each inhibitor concentration. To measure time-dependent inhibition using the “progress-curve method” (see references cited above and Kuzmic et al., Methods Enzymol 2004; 383: 366-81), ERK (or other kinase) is treated with varying amounts of the lactone inhibitor, and the formation of ADP is measured continuously by a coupled assay. […] Such molecules may be competitive inhibitors but should not show time-dependent inactivation.\n(§5) Those of skill in the art will recognize that within the set of compounds useful in the methods of the invention, significant variability in specificity can be achieved, allowing one to identify optimal compounds for different applications. Inhibition progress curve analysis was performed using continuous, colorimetric, or fluorimetric assays. All experiments were done at 1 mM ATP, with the exception of KDR (at 5 mM ATP).\n(§6) MEK1 assays were performed using pre-incubation experiments with radioactive [^32P]ATP and filter binding of product. All other kinases were analyzed using progress curve analysis from a continuous spectrophotometric assay."}, "[5]": {"biological_target": "GSK3β (Homo sapiens, UniProt P49841)", "sequence (P49841 whole entry)": "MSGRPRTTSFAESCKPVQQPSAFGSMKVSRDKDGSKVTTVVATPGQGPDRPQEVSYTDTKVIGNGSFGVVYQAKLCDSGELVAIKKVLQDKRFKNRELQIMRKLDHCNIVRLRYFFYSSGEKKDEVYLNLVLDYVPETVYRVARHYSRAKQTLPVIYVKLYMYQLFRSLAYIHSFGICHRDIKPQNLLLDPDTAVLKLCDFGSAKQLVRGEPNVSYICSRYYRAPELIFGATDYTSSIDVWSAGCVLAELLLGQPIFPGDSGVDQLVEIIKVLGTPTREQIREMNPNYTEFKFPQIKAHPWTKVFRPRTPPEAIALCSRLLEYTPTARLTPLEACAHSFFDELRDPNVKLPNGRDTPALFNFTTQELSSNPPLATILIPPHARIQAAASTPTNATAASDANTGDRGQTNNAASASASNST", "test": "Time-dependent kinase inhibition kinetics (progress curve)", "assay_type": "biochemical", "experimental": "as §3, §4, §5, §6"}, "[6]": {"biological_target": "PDGFRα (Homo sapiens, UniProt P16234)", "sequence (P16234 24-1089)": "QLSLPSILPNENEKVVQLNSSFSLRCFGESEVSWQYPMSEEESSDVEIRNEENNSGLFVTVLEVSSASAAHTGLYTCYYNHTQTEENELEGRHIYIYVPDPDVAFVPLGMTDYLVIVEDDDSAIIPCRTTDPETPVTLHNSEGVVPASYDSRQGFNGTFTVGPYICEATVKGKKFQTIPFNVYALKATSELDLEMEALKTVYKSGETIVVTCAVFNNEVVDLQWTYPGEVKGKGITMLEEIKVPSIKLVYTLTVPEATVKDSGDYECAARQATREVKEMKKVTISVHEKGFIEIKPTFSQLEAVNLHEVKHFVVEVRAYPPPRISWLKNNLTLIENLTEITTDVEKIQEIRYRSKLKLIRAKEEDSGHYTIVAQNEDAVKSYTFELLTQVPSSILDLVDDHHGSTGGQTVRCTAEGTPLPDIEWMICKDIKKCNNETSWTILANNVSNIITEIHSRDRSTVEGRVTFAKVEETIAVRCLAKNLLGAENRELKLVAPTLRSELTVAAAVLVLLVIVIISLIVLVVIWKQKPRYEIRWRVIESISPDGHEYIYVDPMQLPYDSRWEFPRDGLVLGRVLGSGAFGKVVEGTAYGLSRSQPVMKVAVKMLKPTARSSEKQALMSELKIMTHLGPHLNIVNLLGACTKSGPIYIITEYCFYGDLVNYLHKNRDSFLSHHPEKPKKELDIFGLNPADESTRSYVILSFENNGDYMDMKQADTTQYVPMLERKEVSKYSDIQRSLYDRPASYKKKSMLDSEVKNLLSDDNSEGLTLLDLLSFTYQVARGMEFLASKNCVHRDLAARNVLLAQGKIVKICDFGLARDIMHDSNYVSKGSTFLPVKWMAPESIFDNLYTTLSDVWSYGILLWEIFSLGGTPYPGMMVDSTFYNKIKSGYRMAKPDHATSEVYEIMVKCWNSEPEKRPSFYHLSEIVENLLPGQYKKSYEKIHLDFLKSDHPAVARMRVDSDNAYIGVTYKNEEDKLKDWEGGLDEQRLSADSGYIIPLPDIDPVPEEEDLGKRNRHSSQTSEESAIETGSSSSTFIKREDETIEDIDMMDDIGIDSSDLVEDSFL", "test": "Time-dependent kinase inhibition kinetics (progress curve)", "assay_type": "biochemical", "experimental": "as §3, §4, §5, §6"}, "[7]": {"biological_target": "Flt-1 (VEGFR1) (Homo sapiens, UniProt P17948)", "sequence (P17948 27-1338)": "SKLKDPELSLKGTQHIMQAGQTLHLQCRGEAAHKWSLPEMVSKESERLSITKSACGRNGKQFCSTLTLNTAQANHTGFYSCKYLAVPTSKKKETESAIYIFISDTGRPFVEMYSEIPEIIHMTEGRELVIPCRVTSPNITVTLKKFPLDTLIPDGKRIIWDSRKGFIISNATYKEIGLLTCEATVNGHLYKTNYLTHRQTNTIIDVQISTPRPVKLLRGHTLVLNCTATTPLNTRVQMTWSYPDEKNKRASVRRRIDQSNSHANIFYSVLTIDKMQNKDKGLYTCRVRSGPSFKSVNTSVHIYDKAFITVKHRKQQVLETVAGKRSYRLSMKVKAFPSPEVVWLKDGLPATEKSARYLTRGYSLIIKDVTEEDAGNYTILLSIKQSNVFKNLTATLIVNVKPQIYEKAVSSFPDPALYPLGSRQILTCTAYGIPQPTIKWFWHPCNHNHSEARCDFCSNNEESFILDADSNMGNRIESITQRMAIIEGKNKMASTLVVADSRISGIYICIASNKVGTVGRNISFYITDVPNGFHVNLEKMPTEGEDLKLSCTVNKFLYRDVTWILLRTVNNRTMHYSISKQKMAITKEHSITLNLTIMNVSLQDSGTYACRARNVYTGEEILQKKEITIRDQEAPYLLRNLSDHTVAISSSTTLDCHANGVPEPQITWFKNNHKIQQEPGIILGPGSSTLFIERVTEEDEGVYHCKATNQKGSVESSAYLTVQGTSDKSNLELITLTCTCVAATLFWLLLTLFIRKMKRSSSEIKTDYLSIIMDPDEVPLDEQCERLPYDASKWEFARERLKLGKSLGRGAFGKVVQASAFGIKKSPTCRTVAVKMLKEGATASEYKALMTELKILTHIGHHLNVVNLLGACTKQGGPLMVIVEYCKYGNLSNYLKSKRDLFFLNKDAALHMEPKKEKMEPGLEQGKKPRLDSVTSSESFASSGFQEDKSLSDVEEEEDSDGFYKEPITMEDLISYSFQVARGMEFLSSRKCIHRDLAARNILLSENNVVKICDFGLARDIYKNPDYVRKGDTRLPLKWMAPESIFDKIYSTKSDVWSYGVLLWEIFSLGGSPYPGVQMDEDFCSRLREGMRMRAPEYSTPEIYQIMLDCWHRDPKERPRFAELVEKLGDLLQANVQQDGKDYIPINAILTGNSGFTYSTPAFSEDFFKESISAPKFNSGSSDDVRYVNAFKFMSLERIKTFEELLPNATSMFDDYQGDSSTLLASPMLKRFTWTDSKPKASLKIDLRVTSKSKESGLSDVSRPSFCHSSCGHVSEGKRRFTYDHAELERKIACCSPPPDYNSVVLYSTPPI", "test": "Time-dependent kinase inhibition kinetics (progress curve)", "assay_type": "biochemical", "experimental": "as §3, §4, §5, §6"}, "[8]": {"biological_target": "PDGFRβ (Homo sapiens, UniProt P09619)", "test": "Time-dependent kinase inhibition kinetics (progress curve)", "assay_type": "biochemical", "experimental": "as §3, §4, §5, §6"}, "[9]": {"biological_target": "GSK3α (Homo sapiens, UniProt P49840)", "test": "Time-dependent kinase inhibition kinetics (progress curve)", "assay_type": "biochemical", "experimental": "as §3, §4, §5, §6"}, "[10]": {"biological_target": "KDR (VEGFR2) (Homo sapiens, UniProt P35968)", "sequence (P35968 20-1356)": "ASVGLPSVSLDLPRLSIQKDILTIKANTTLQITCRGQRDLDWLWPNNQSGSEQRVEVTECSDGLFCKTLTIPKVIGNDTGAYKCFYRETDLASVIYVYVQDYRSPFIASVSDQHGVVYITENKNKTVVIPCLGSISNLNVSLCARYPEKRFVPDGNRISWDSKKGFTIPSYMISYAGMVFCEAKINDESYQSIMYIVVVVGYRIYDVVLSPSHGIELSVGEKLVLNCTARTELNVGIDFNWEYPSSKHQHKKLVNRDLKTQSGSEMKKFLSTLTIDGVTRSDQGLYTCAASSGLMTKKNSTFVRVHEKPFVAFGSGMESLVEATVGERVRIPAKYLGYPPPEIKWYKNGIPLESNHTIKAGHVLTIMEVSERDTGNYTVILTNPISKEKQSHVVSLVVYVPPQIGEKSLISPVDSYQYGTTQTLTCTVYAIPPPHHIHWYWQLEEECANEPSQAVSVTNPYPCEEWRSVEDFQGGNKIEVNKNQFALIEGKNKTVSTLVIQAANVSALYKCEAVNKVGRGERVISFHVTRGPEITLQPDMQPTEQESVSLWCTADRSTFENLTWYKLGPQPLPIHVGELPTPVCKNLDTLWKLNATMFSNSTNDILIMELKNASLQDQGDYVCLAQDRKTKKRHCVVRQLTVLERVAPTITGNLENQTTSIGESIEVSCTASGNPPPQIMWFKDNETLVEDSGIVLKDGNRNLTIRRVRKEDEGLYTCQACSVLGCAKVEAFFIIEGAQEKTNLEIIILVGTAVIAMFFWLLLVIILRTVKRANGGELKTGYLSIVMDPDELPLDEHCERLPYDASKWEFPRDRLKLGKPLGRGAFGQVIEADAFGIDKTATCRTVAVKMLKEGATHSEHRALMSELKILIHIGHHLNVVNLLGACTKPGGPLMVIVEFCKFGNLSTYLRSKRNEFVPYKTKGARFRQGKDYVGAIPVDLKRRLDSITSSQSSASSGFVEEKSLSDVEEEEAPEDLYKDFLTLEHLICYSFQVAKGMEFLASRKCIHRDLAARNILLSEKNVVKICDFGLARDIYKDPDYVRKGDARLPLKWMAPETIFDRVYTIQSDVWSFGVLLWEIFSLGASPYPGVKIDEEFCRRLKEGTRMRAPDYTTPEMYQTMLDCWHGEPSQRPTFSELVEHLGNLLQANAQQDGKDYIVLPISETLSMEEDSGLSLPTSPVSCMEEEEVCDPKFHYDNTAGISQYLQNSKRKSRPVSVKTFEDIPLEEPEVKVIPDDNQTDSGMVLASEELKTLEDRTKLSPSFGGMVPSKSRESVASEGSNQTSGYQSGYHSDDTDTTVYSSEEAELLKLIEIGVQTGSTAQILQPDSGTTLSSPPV", "test": "Time-dependent kinase inhibition kinetics (progress curve)", "assay_type": "biochemical", "experimental": "as §3, §4, §5, §6"}, "[11]": {"biological_target": "TrkA (Homo sapiens, UniProt P04629)", "test": "Time-dependent kinase inhibition kinetics (progress curve)", "assay_type": "biochemical", "experimental": "as §3, §4, §5, §6"}}, "note": "Where two headings read alike, the source gives them in different places."}
{"smiles": "COc1cc(O)c2c(c1)[C@H]1O[C@@H]1C[C@H](O)[C@H](O)C(=O)/C=C\\C[C@H](C)OC2=O", "note": "[Hypothemycin, hypothemycin]", "values": [{"measurement": "IC50", "setting": "[1]; COLO-829, Table 7, COLO829 human melanoma, V600E B-Raf, read-out: Cell Line IC50 COLO829", "value": "73 ± 17", "unit": "nM"}, {"measurement": "GI50", "setting": "[1]; Homo sapiens, COLO-829", "value": 50, "unit": "nM"}, {"measurement": "IC50", "setting": "[1]; Homo sapiens, COLO-829, read-out: Kinase Inhibitor IC50", "value": 89, "unit": "nM"}, {"measurement": "IC50", "setting": "[2]; HT-29, Table 7, HT29 human colon cancer, V600E B-Raf, read-out: Cell Line IC50 HT29", "value": "240 ± 170", "unit": "nM"}, {"measurement": "IC50", "setting": "[2]; Homo sapiens, HT-29, read-out: Kinase Inhibitor IC50", "value": 100, "unit": "nM"}, {"measurement": "time phosphorylated active ERK is absent after removal of the inhibitor", "setting": "[3]; COLO829 (and other BRAF mutant cells)", "value": "~24", "unit": "h"}, {"measurement": "ERK pathway after a 10 min. exposure", "setting": "[3]; COLO829, concentrations several-fold lower than Kd / sub-micromolar", "value": "completely shut down"}, {"measurement": "time to depletion of the phosphorylated form of ERK", "setting": "[3]; COLO829 cells, 1 microM hypothemycin, FIG. 8", "value": "≤ 10", "unit": "min"}, {"measurement": "Ki", "setting": "[4]; TRKB, reversible inhibition competitive with ATP", "value": 370, "unit": "nM"}, {"measurement": "kinact/Ki", "setting": "[4]; TrkB", "value": "None"}, {"measurement": "time-dependent inactivation (covalent bond formation)", "setting": "[4]; TrkB", "value": "did not show time-dependent inactivation"}, {"measurement": "kinact", "setting": "[4]; TrkB, 1 mM ATP", "value": "None"}, {"measurement": "Ki", "setting": "[5]", "value": 370000, "unit": "nM"}, {"measurement": "kinact/KI", "setting": "[5]; GSK3β", "value": 5.4, "unit": "M⁻¹ s⁻¹"}, {"measurement": "kinact", "setting": "[5]; GSK3β, 1 mM ATP", "value": 0.002, "unit": "s⁻¹"}, {"measurement": "kinact/KI", "setting": "[6]", "value": 1300, "unit": "M⁻¹ s⁻¹"}, {"measurement": "Ki", "setting": "[6]; 1 mM ATP", "value": 1500, "unit": "nM"}, {"measurement": "kinact", "setting": "[6]; 1 mM ATP", "value": 0.002, "unit": "s⁻¹"}, {"measurement": "kinact/KI", "setting": "[7]", "value": 160000, "unit": "M⁻¹ s⁻¹"}, {"measurement": "kinact", "setting": "[7]; 1 mM ATP", "value": 0.018, "unit": "s⁻¹"}, {"measurement": "Ki", "setting": "[7]; 1 mM ATP, significant decrease of enzyme activity over time without inhibitor", "value": 110, "unit": "nM"}, {"measurement": "kinact/KI", "setting": "[8]", "value": 2500, "unit": "M⁻¹ s⁻¹"}, {"measurement": "Ki", "setting": "[8]; 1 mM ATP", "value": 1200, "unit": "nM"}, {"measurement": "kinact", "setting": "[8]; 1 mM ATP", "value": 0.003, "unit": "s⁻¹"}, {"measurement": "Ki", "setting": "[9]", "value": "> 630000", "unit": "nM"}, {"measurement": "Ki", "setting": "[10]; KDR", "value": 10, "unit": "nM"}, {"measurement": "kinact/KI", "setting": "[10]; KDR", "value": 500000, "unit": "M⁻¹ s⁻¹"}, {"measurement": "kinact/Ki", "setting": "[10]; KDR (VEGFR2)", "value": 500000, "unit": "M⁻¹ s⁻¹"}, {"measurement": "Ki", "setting": "[10]; KDR (VEGFR2), 5 mM ATP", "value": 14, "unit": "nM"}, {"measurement": "kinact", "setting": "[10]; KDR (VEGFR2), 5 mM ATP", "value": 0.007, "unit": "s⁻¹"}, {"measurement": "KDR activity inhibited", "setting": "[10]; calculated for 0.1 μM for ~10 minutes", "value": "> 98", "unit": "%"}, {"measurement": "Ki", "setting": "[11]; TRKA, reversible inhibition competitive with ATP", "value": 2200, "unit": "nM"}, {"measurement": "kinact/Ki", "setting": "[11]; TrkA", "value": "None"}, {"measurement": "time-dependent inactivation (covalent bond formation)", "setting": "[11]; TrkA", "value": "did not show time-dependent inactivation"}, {"measurement": "kinact", "setting": "[11]; TrkA, 1 mM ATP", "value": "None"}]}
